This note sets out measurements from ChEMBL document CHEMBL3272131, “Molecular connectivity. 6. Examination of the parabolic relationship between molecular connectivity and biological activity” (J Med Chem, 1976).

The species named for one test is Rattus norvegicus. As to the kind of experiment: Induction of hypnotic activity in rat. Format: functional.
For a further test, the species on record is Oryctolagus cuniculus. As to the kind of experiment: Induction of hypnotic activity in rabbit. Format: functional.

As for `CCC1(C(C)C)C(=O)NC(=O)NC1=O` [PROBARBITAL], the “-log(1/MED)” value turned out to be 3.34 in the test filed under Rattus norvegicus and 3.3 in the test filed under Oryctolagus cuniculus.
